Reference: US9861610B2, “Process for selective extraction of bioactive and bioavailable cinnamon polyphenols and procyanidin oligomers and a stable composition thereof” (AKAY FLAVOURS & AROMATICS PVT LTD., priority 2011, dated 2018)

Test system: streptozotocin induced diabetic rats
Experiment: Serum insulin levels (chemiluminescence method, human specific kit)
Conditions: 30 days treatment

SMILES: COc1ccc(Cl)cc1C(=O)NCCc1ccc(S(=O)(=O)NC(=O)NC2CCCCC2)cc1 [Glibenclamide]
- insulin levels: 0.4 μIU/ml
